row,Compound,melting point [°C]
1,CC(C)(C)c1cc(Nc2cccc(Cl)c2)cc(C(C)(C)C)c1O,110 to 111
2,CNC1CN(CCO)CCN1c1ncc(SC)c(Cl)n1 (stereo not drawn),120 to 122
3,C=CCOC1C(NC(C)=O)C(OCc2ccccc2)OC(COCc2ccccc2)C1OCc1ccccc1 (stereo not drawn),138
4,O=C(c1cc(-c2ccc(OCc3ccccc3)cc2)c(=O)n2ccc3ccsc3c12)N(CCN1CCOCC1)c1ccccc1,168 to 170
5,CC(C)[C@H](NC(=O)N(C)Cc1csc(C2CCC2)n1)C(=O)N[C@@H](Cc1ccccc1)C[C@H](O)[C@H](Cc1ccccc1)NC(=O)OCc1cncs1,74 to 76
6,CCOC(=O)c1cnc2n(c1=O)CCC2,59 to 60
7,O=C(CN1C(=O)C(NC(=O)Nc2ccc(Cl)cc2)N=C(c2ccccc2)c2ccccc21)NCc1ccccc1 (stereo not drawn),260 to 262
8,Nc1c(Cl)nc2ccccc2c1NCc1cc(-c2ccc(F)cc2)no1,127 to 128
9,CCCCCc1noc(-c2ccc(N3CCN(C(=O)c4ccccc4C(F)(F)F)CC3)nn2)n1,164
10,C[C@]1(CN2CCN(c3cc(-c4ccccc4)nc(-c4ccccc4)n3)CC2)Cn2cc([N+](=O)[O-])nc2O1,202 to 205
11,C=Cn1c(Cl)cc(Cl)c(O)c1=S,114
12,COC(=O)C(c1cc2c(cc1Cl)OCO2)c1cn(C)c2cc(Br)ccc12 (stereo not drawn),183 to 185
13,CCc1c(CC(O)N2CCN(c3cc(C)ccn3)CC2)c2cccc3c2n1CCC3 (stereo not drawn),60
14,CO/C=C(/C(=O)OC)c1ccccc1CSc1nc2ccccc2s1,77 to 78
15,CC(=O)N1CCN(CCSc2ccnc(CSc3nc4ccccc4[nH]3)c2C)CC1,129 to 131
16,CC(C)(C)NS(=O)(=O)c1c(C(Br)Br)nsc1OCC(F)(F)F,135 to 138
17,COc1cc(C(=O)N2CCN(C(=O)C3=Cc4cc(O)c(O)cc4CCC3)CC2)cc(OC)c1OC,206 to 207
18,Clc1cccc(Nc2ncc3cc4ccccc4n3n2)c1,174 to 176
19,Cc1ccc(S(=O)(=O)Nc2ccc(F)cc2[N+](=O)[O-])cc1,118
20,CN1CCCC1=NC(=O)Nc1c(Cl)cc(Cl)cc1Cl,160 to 162

row,Compound,melting point [°C]
1,CSc1nn2c(N)cc(C)nc2c1S(=O)(=O)c1ccc(Br)cc1,> 230
2,OC(CNC1CC1)c1cccc(Br)c1 (stereo not drawn),69.5 to 70.4
3,"CC(=O)NCC1CC(c2ccc(-n3ccc(C=O)c3)c(F)c2)=NO1 (single isomer, unassigned; (-))",155 to 156
4,N#Cc1cc(C2=Nc3ccc(C4CC4)cc3NC(=O)C2)ccn1,227 to 230
5,CC(C)n1c(/C=C/C2CC(O)CC(=O)O2)c(-c2ccc(F)cc2)c2ccccc2c1=O (stereo not drawn),151 to 154
6,O=C(NCCSCc1cccc(Cl)c1)c1c(Br)cccc1Br,55 to 57
7,Nc1nc(-c2cc(Cl)ccc2Cl)nc(N2CCCC2)n1,191 to 193
8,N#CCC12CC(c3ccccc31)c1ccccc12,130 to 131
9,CC1(C)OC(=O)Nc2ccc(-c3cc(F)cc(F)c3)cc21,218 to 219
10,CSC1=NC(=O)C(=Cc2cc(C(C)(C)C)c(O)c(C(C)(C)C)c2)N1C,177 to 179
11,CN1C(=O)CN=C(N2CCC(C)(C)CC2)c2ccccc21,143 to 145
12,OCc1cn(-c2ccc(C(F)(F)F)cn2)nc1C1CCCCC1,138 to 139
13,O=C(Nc1cccc2c1C(=O)c1c-2n[nH]c1-c1ccc(C(=O)N2CCN(CCO)CC2)s1)NN1CCOCC1,186 to 187
14,N#CC=Cc1ccc(F)cc1,64 to 65
15,O=c1c(CCl)coc2c1COc1ccccc1-2,163 to 165
16,CCOc1ccc(CC(=O)O)cc1OCCCc1cn(-c2ccc(C(F)(F)F)cn2)nc1C(C)C,116 to 117
17,C=C1C[C@]2(C)C(=O)CC[C@H]2[C@@H]2CCC3=CC(=O)CC[C@]3(C)[C@@H]12,157 to 160
18,CCc1cnc(CSc2cnc(NC(C)=O)s2)o1,147 to 148
19,CCOC(=O)C=Cc1ccn(S(=O)(=O)c2ccc3nc[nH]c(=O)c3c2)c1,207 to 210
20,N#Cc1cc(NC(=O)c2ccccc2F)ccc1-n1nc(C(F)(F)F)cc1C(F)(F)F,132 to 134

row,Compound,melting point [°C]
1,Cc1ccnc2c1C(=NNC(=N)N)CC(c1cc(Cl)sc1Cl)C2 (stereo not drawn),250 to 251
2,COc1c(N2CCN(C)CC2)c(F)cc2c(=O)c(C(=O)O)cn(C3CC3)c12,221 to 222
3,COCCN1CCc2ccc(Nc3ncc4ccc(-c5ccccc5)n4n3)cc2CC1,116 to 118
4,Oc1ccc(-n2nc3ccccc3n2)cc1,216 to 218
5,O=C(NCCCCO)c1ccc2c(c1)OCO2,95 to 98
6,Cn1cc(-c2cc(-c3cnc4[nH]ccc4c3)ccn2)n(-c2cccc(C#N)c2)c1=O,265
7,COc1ccc(-c2c(Cl)ncnc2NS(=O)(=O)c2ccc(OC)cc2)cc1,165 to 167
8,COc1ccc(N2Cc3ccccc3P2(C)=O)cc1 (stereo not drawn),148 to 150
9,N#Cc1cccc(C2=Nc3ccc(C#Cc4ccc(OC(F)(F)F)cc4)cc3NC(=O)C2)c1,239 to 241
10,Clc1ncnc2oc(-c3ccccc3)cc12,136 to 138
11,O=C1c2cc(Cl)ccc2-n2cnc(Cl)c2[C@@H]2CCCN12,209 to 210
12,CCCc1c(C(=O)NCc2ccc3cc(OCC(=O)OC)ccc3c2)cnn1-c1ccc(Cl)cc1,139 to 140
13,COc1ccc2c(c1)c(Cc1cc(=O)n(-c3ccc(C)nn3)[nH]1)c(C)n2C(=O)c1ccc(Cl)cc1,122 to 124
14,Clc1ccc(I)cc1CBr,94 to 95
15,Nc1ccc(Oc2ncnc(Oc3ccccc3Cl)c2F)c(Cl)c1Cl,162 to 163
16,COc1cc2c(c3c1OC(C)(C)C3)C(c1ccc(NS(C)(=O)=O)cc1)=NC(C)(C)C2,235 to 237
17,O=CC=Cc1cn(Cc2cccc([N+](=O)[O-])c2)nn1,136 to 140
18,Cc1cc(Br)cnc1CCCCNc1ncc(Cc2ccn(C)c(=O)c2)c(=O)[nH]1,203 to 204
19,O=C1Cc2cccc3c2N1CCC3,90 to 93
20,C#Cc1ccc(-c2ccc(-c3ccc(C#C)cc3)n2-c2ccc(C)cc2)cc1,235 to 237

# The remaining lines, values ahead:
row,melting point [°C],Compound
1,213 to 214,C[C@@H]([C@@H](CC1CCC(c2ccccc2)CC1)C(=O)N[C@H](C(=O)Nc1nccs1)C(C)(C)C)N(O)C=O (stereo partly drawn)
2,172 to 174,O=c1[nH]c(=O)n(Cc2ccccc2)cc1C=NO
3,178,CC(C)(C)OC(=O)Nc1ccc(C#Cc2ccccn2)cc1N
4,101 to 103,O=C(NC1(COc2ccc(Br)cc2)COC1)OCc1ccccc1
5,45 to 47,CCc1c(C(=O)OC)c(C(F)(F)F)nc(C(F)(F)F)c1C(=O)OC
6,132 to 134,COC(=O)C(O)C(Sc1ccc2ccccc2c1N)c1ccc(OC)cc1 (stereo not drawn)
7,232 to 233,CC(=O)Nc1c(C#N)ccc(C#N)c1[N+](=O)[O-]
8,117 to 160,CCN1CCc2cc(Nc3ncc(Cl)c(Nc4ccccc4C(=O)NC)n3)c(OC)c(N)c2CC1
9,132 to 134,O=C(Cn1cncc(NC(=O)OCc2ccccc2)c1=O)NC(Cc1ccccc1)C(=O)C(F)(F)F (stereo not drawn)
10,83 to 84,CCOC(=O)N(Cc1ccc(F)cc1)c1ccc(C(=O)OC)cc1
11,108 to 112,CC(=O)Nc1cccc(OC(Cn2ccnc2)c2ccc(Cl)cc2Cl)c1 (stereo not drawn)
12,175 to 182,COc1ccc(NC(=O)c2ccc(OC)c(NC(=S)Nc3cc(Cl)cc(Cl)c3)c2)cc1
13,79 to 80,COC(=O)c1ccccc1NC(=O)CC(C)=O
14,186 to 187,CCc1cccc(CC)c1NC(=O)Nc1cnc(C)nc1-c1ccccc1Cl
15,208 to 211,CC(=O)OCC1Cc2c(C3=C(c4cn(C)c5ccccc45)C(=O)OC3=O)c3ccccc3n2C1 (stereo not drawn)
16,175 to 177,COc1ccc2[nH]c3c(c2c1)C(C(=O)O)CCC3 (stereo not drawn)
17,108 to 112,O=C(OCc1ccccc1)C1CCCc2[nH]c3ccccc3c21 (stereo not drawn)
18,69 to 71,COC(=O)c1cccc(-c2ccncn2)c1
19,103 to 105,O=C(O)C(=O)c1ccc(OCCCCOc2ccccc2)cc1

row,melting point [°C],Compound
1,204 to 206,O=C(O)C(=O)c1cc(F)ccc1NC(=O)c1ccc(-c2ccccc2)cc1
2,220 to 222,CCOC(=O)c1c(N=Cc2cccs2)sc(N=Cc2ccc([N+](=O)[O-])s2)c1C(=O)OCC
3,166 to 167,CCOC(=O)c1cc2c(C)ccc(OCCO)c2[nH]1
4,110 to 113,COC(=O)c1cccc2oc(CBr)nc12
5,132 to 134,O=C(O)[C@H]1C[C@@H](O)CN1C(=O)Nc1ccc(Cl)cc1
6,73 to 74.5,CC(=O)SC(CC(=O)c1ccc(Cl)cc1Cl)C(=O)O (stereo not drawn)
7,188 to 189,NC(=O)N1C(=O)Cc2ccc(-c3ccccc3)cc21
8,212 to 215,CC(C)C(=O)Oc1ccc2nc(NC(=O)Nc3ccccc3)sc2c1
9,55 to 56,CCOc1ccc(NC(=O)OC(C)(C)C)c(C)c1
10,85 to 86,CNC(=S)NS(=O)(=O)c1cc(CCNC(=O)c2cc(Cl)ccc2OC)ccc1-c1ccccn1
11,119,CCO[C@@H](Cc1ccc(-c2nc([N+](=O)[O-])nn2C)cc1)C(=O)OC
12,86 to 88,COC(=O)Oc1c(C(=O)c2ccc(Cl)cc2Cl)c(C)nn1C
13,178 to 182,CC(C)[C@H](NC(=O)OCc1ccccc1)C(=O)N[C@@H](Cc1ccccc1)[C@@H](O)[C@@H](O)[C@H](Cc1ccccc1)NC(=O)OC(C)(C)C
14,123 to 124,CCOC(=O)c1c(C)nc2c(c1Cl)c1ccccc1n2C
15,224 to 228,CC(=O)c1ccc2ccc(C(=O)O)cc2c1
16,150 to 152,COC(=O)COc1nc(N)nc(-c2ccccc2)c1-c1ccc(=O)n(C(C)C)n1
17,178 to 179,CCOC(=O)c1csc2cc(Oc3cc(Cl)nc(N)n3)ccc12
18,108,CCOCCOc1ccc(CCNC(=O)c2ccccc2CC(=O)OCC)cc1
19,167 to 168,CCOC(=O)c1coc2cc(NS(C)(=O)=O)c(Oc3ccccc3)cc2c1=O

# Reference: a melting point compilation (Tetko et al.; mined from patent text by program, amines drawn as free bases though some values may be those of a salt)
